{"source": "patent US4500533A", "about": "“2,4,5-Triaryl pyrimidines and a method of treating pain, fever, thrombosis, inflammation and arthritis” (Eli Lilly and Company, priority 1983, dated 1985)", "key": {"Mouse Writhing": {"test_system": "Mouse Writhing", "experiment": "mouse writhing assay (analgesic activity)", "format": "in vivo, Cox standard strain albino male mice", "conditions": "po, p.o. by gavage in corn oil-acacia emulsion (5%), three hours before i.p. acetic acid (0.60 percent), 10 minute observation starting five minutes after acetic acid, read-out: Mouse Writhing ED50 (dose required to inhibit induced writhing by fifty percent)", "source_text": "The analgesic activity of a number of compounds provided by this invention has been determined in the standard mouse writhing assay. Writhing, which is characterized by contraction of the abdominal musculature, extension of the hindlegs, and rotation of the trunk, was induced in Cox standard strain albino male mice. The mice, weighing 18-24 grams, were fasted overnight and given the test compound by gavage in a corn oil-acacia emulsion (5%) three hours before writhing was induced by the intraperitoneal administration of acetic acid (0.60 percent). Each treatment group consisted of five mice. The total number of writhes for the treatment group was determined during a 10 minute observation starting five minutes after acetic acid administration. […] Table I which follows presents typical test results obtained with certain of the compounds of this invention. The results in the mouse writhing assay are presented as the effective oral (p.o.) dose in mg./kg. of the tested compound required to inhibit induced writhing in the test animals by fifty percent (ED50)."}, "[1]": {"test_system": "adjuvant-induced arthritis", "experiment": "Established adjuvant-induced arthritis test in rats (uninjected hind paw swelling)", "format": "in vivo, male Lewis-Wistar rats", "conditions": "AUC of mean uninjected paw volumes"}}}
{"smiles": "COc1ccc(-c2cnc(-c3ccc(Cl)cc3)nc2-c2ccc(OC)cc2)cc1", "note": "[Example 1, 2-(4-Chlorophenyl)-4,5-bis(4-methoxyphenyl)pyrimidine]", "values": [{"measurement": "ED50", "setting": "Mouse Writhing", "value": 0.99, "unit": "mg/kg"}, {"measurement": "% Inhibition of Uninjected Paw Volume Inflammation, Days 14 through 30", "setting": "[1]; 25 mg./kg. p.o. × 15, daily days 15-29, corn oil-acacia emulsion", "value": 74, "unit": "%"}]}
{"smiles": "COc1ccc(-c2cnc(-c3ccc(F)cc3)nc2-c2ccc(OC)cc2)cc1", "note": "[Example 2, 2-(4-Fluorophenyl)-4,5-bis(4-methoxyphenyl)pyrimidine]", "values": [{"measurement": "ED50", "setting": "Mouse Writhing", "value": 1.48, "unit": "mg/kg"}, {"measurement": "% Inhibition of Uninjected Paw Volume Inflammation, Days 14 through 30", "setting": "[1]; 10 mg./kg. p.o. × 15, daily days 15-29, corn oil-acacia emulsion", "value": 70, "unit": "%"}]}
